Assay results reported in patent publication US20110306561A1, “COMPLEMENT C3a DERIVED DIMERIC PEPTIDES AND USES THEREOF” (Yeda Research And Devlopment Co. Ltd., priority 2009, published 2011).
Where two headings read alike, the source gives them in different places. Residues, ends and D or L forms follow the SMILES beside them. No end group written: not given here.

Experiments:
RBL-2H3 cells [1] = settings: Erdei et al. 1995, 1999; cited from earlier work
RBL-2H3 cells [2] = assay type: cell-based, rat
Experimental: Mediator secretion by the rat mucosal mast cells, RBL-2H3-line, in response to stimulation by FcεRI clustering was monitored by measuring the activity of the secreted granular enzyme β-hexosaminidase. To this end, a monoclonal DNP-specific murine IgE-class antibody (rat clone 95.3, 1:10^3 dilution) was added to 15×10^6 cells in 10 ml DMEM and incubated in 96 well plates (100 μl suspension/well) for 2 hours. The cell monolayers were then washed three times with Tyrode's buffer (137 mM NaCl, 2.7 mM KCl, 1.8 mM CaCl2, 0.5 mM MgCl2, 0.4 mM NaH2PO4, 5.6 mM glucose, 10 mM Hepes, 0.1% BSA, pH 7.4.) and stimulated with BSA derivatized by an average of 11 DNP groups per molecule (DNP11-BSA) serving as an antigen. To study the effect of the peptides on antigen-induced response, RBL-2H3 cells were pre-incubated with various concentrations of the peptides for 5 minutes at room temperature before the antigen was added at the pre-determined suboptimal dose. The peptides were present throughout the assay. After 1 hour incubation at 37 ° C., 25 μl of the cell supernatants were removed and incubated with 50 μl of β-hexosaminidase substrate solution (1.3 mg/ml p-nitrophenyl-N-acetyl-β-D-glucosamine in 0.1 M sodium citrate, pH 4.5) at 37° C. for 45 minutes. The reaction was terminated by the addition of 150 μl of 0.2 M glycine, pH 10.7, and the optical density of the samples was measured at 405 nm. […] The total enzyme content of the cells/well (following lysis by triton-x-100) and the spontaneous enzyme release of the cells/well was measured in each experiment. All experiments were performed in triplicate and the results were calculated as net secreted enzyme activity (as fraction or percentage of total cell-content) in response to the stimulus.

[3] = Circular dichroism (CD) measurement of ordered structure; assay type: physicochemical; settings: 100 μg/ml in PBS, room temperature; CD+/CD− not defined
Experimental: In order to assess possible structural features that characterize the active peptides, CD measurement were carried out. The CD measurements were performed on an Applied Photophysics spetrometer in 1 mm light path cell, at room temperature (about 25° C.). The peptides stock solutions were usually of 5 mg/ml in water and the measurements were done at a 100 μg/ml dilution in PBS.

In the case of “Intact human C3a: human complement component C3a, a 77-mer polypeptide as set forth in SEQ ID NO:1”, the “Effect on IgE-mediated degranulation of RBL-2H3 cells (literature)” value (RBL-2H3 cells [1]) is listed as “inhibit the IgE-mediated degranulation of RBL-2H3 cells”, the “Inhibition of secretion of 3H2 of RBL cells (IC50)” value (shortened to “Inhibition”) (RBL-2H3 cells [2]; suboptimal DNP11-BSA antigen stimulus, β-hexosaminidase) is listed as 2 µg/mL and the “Circular Dichroism” value [3] is listed as “CD+”.

In the case of `CC[C@H](C)[C@H](NC(=O)[C@H](Cc1ccc(O)cc1)NC(=O)[C@H](CC(N)=O)NC(=O)[C@H](CSSC[C@H](NC(=O)[C@H](CO)NC(=O)[C@@H](N)CC(=O)O)C(=O)N[C@@H](CC(N)=O)C(=O)N[C@@H](Cc1ccc(O)cc1)C(=O)N[C@H](C(=O)N[C@H](C(=O)N[C@@H](CCCNC(=N)N)C(=O)O)[C@@H](C)O)[C@@H](C)CC)NC(=O)[C@H](CO)NC(=O)[C@@H](N)CC(=O)O)C(=O)N[C@H](C(=O)N[C@@H](CCCNC(=N)N)C(=O)O)[C@@H](C)O` [Dimer B (5513)2] (HELM PEPTIDE1{D.S.C.N.Y.I.T.R}|PEPTIDE2{D.S.C.N.Y.I.T.R}$PEPTIDE1,PEPTIDE2,3:R3-3:R3$$$V2.0; N-terminus and C-terminus assumed), the “Inhibition” value (RBL-2H3 cells [2]) is reported as 25 µg/mL.

In the case of `CC[C@H](C)[C@H](NC(=O)[C@H](Cc1ccc(O)cc1)NC(=O)[C@H](CC(N)=O)NC(=O)[C@H](CS)NC(=O)[C@H](CS)NC(=O)[C@@H](N)CC(=O)O)C(=O)N[C@H](C(=O)N[C@@H](CCCNC(=N)N)C(=O)O)[C@@H](C)O` [Monomer C3a9, reference compound] (H-DCCNYITR-OH; N-terminus and C-terminus assumed), the “Inhibition” value (RBL-2H3 cells [2]) is reported as 200 µg/mL.

For DCSNYITR [Monomer A (5508)], the “Inhibition” value (RBL-2H3 cells [2]) was 75 µg/mL.

In the case of `CC[C@H](C)[C@H](NC(=O)[C@H](Cc1ccc(O)cc1)NC(=O)[C@H](CC(N)=O)NC(=O)[C@H](CO)NC(=O)[C@H](CSSC[C@H](NC(=O)[C@@H](N)CC(=O)O)C(=O)N[C@@H](CO)C(=O)N[C@@H](CC(N)=O)C(=O)N[C@@H](Cc1ccc(O)cc1)C(=O)N[C@H](C(=O)N[C@H](C(=O)N[C@@H](CCCNC(=N)N)C(=O)O)[C@@H](C)O)[C@@H](C)CC)NC(=O)[C@@H](N)CC(=O)O)C(=O)N[C@H](C(=O)N[C@@H](CCCNC(=N)N)C(=O)O)[C@@H](C)O` [Dimer A (5508)2] (HELM PEPTIDE1{D.C.S.N.Y.I.T.R}|PEPTIDE2{D.C.S.N.Y.I.T.R}$PEPTIDE1,PEPTIDE2,2:R3-2:R3$$$V2.0; N-terminus and C-terminus assumed), the “Inhibition” value (RBL-2H3 cells [2]) is reported as 15 µg/mL.

B1: C5a: complement activation product C5a, anaphylatoxin (protein, UniProt P01031 678-751, looked up)
C5a anaphylatoxin: TLQKKIEEIAAKYKHSVVKKCCYDGACVNNDETCEQRAARISLGPRCIKAFTECCVVASQLRANISHKDMQLGR
modifications: C5a anaphylatoxin
In the case of B1, the “Effect on IgE-mediated degranulation of RBL-2H3 cells (literature)” value (RBL-2H3 cells [1]) is given as “no effect”.
